Assays:
[1] = system: peripheral blood lymphocytes (PBL); test: Proliferation assay of peripheral blood lymphocytes (3H-thymidine incorporation); type: cell-based, human; details: for 3H-thymidine Incorporation (cpm + S.D.) / S.I. (stimulation index): PBL from anti-VCA-positive, anti-EA-positive donor, 5 days
Protocol: Proliferation assays. T-cell proliferation assays using the native p17 or p50 polypeptide or the synthetic peptides were performed as previously described in detail (Pothen et al., Int. J. Cancer, 49:656-660, 1991). Briefly, peripheral blood lymphocytes (PBLO from sero-positive donors were isolated on FICOLL-HYPAQUE gradients, washed and resuspended in RPMI 1640 media containing 10% heat-inactivated human A^+ serum from a sero-negative donor. Cells (1×10^5 per 0.1 ml) were then added to each well in 96-well, round-bottomed tissue culture plates (Costar, Cambridge, Mass.). The different antigen preparations were added to triplicate wells in 0.1 ml volumes and the plates were incubated at 37° C. for 5 days. ^3H-thymidine (5 Ci per mM) was added at a concentration of 1 μCi per well over the last 4 hours of culture. The cells were then harvested with a multichannel sample harvester and ^3H-thymidine incorporation was determined using a Beckman Model LS 3801 liquid scintillation counter. Stimulation indices for the test antigens were calculated by dividing the average counts per minute (CPMO for the test antigens by the average CPM of the medium control wells.
PBL from asymptomatic EBV-infected individuals were tested for response to any of the three p17 synthetic peptides (Table 1) by a proliferation assay using lymphocytes previously shown to proliferate in the presence of native p17 (Pothen et al., Int. J. Cancer, 49:656-660, 1991). Different concentrations of the synthetic peptides were incubated with the PBL for 5 days and then proliferation was assayed by the incorporation of ^3H-thymidine. The native p17 purified from activated P3HR-1 cells gave a S.I. of 15.8 in this experiment. […] Neither of the other synthetic peptides induced a proliferation response at the concentrations tested.
PBL from 3 anti-VCA-positive anti-EA-antibody-negative individuals were also examined in the proliferation assay with the three synthetic peptides. Again, all 3 PBL preparations responded to the highest concentrations of p17.1 with S.I.'s ranging from 3.5-11. Two of the preparations (FIG. 2A,C) also proliferated in the presence of lower concentrations of antigen with S.I.'s of 3 and 5 respectively. […] These experiments established that T-lymphocytes from EBV-infected individuals, irrespective of the presence of antibody to EA, recognized a dominant epitope on p17.

[2] = system: anti-EA antibodies in human sera; test: ELISA, serological reactivity of human sera with p17 synthetic peptides; type: binding; details: for No. Positive/No. Tested / No. Positive/No. Tested (%): sera 1:10
Protocol: ELISA. The ELISA for measuring specific antibodies to p17, p50 or to the synthetic peptides was performed as previously described in detail (Luka et al., J. Immunol. Methods, 67:145-156, 1984). Aliquots of different antigen concentrations were diluted in 0.5M Na2CO3 buffer, pH 9.5, added to wells in polystyrene microtiter plates (Linbro) and the plates incubated overnight at 4° C. Following this incubation period, the plates were washed 5× with Tris-HCl, pH 7.4, containing 0.05% Tween 20, 50 mM NaCl and 100 mg per liter albumin (Sigma) and dried for 20 minutes at room temperature. The plates were screened with different anti-EA-R or EA-D antibody positive human sera and the monoclonal antibody to p17 or p50 to identify the optimal concentration of antigen to be used in the serological studies. Alkaline-phosphatase-labelled goat anti-human IgG (Sigma) or goat anti-mouse IgG (Sigma) was used as the indicator system.
For the testing of human sera for antibodies to native p17, p50 or to the synthetic peptides, sera were diluted 1:10 in ELISA buffer, added in 0.1 ml volumes to wells coated with optimal concentrations of antigen and the plates were incubated for 60 minutes at room temperature. After 4 washes with ELISA buffer, 100 μl of alkaline phosphatase-labelled goat anti-human IgG in ELISA buffer were added to each well and the plates were incubated at room temperature for 1 hour. Following four more washes in buffer, the enzyme reaction was performed by dissolving 1 mg per ml of Sigma alkaline phosphatase substrate in 1M diethanolamine buffer, pH 10.4, containing 1 mM MgCl2 and 0.1 mM ZnCl2, and 100 μl of the mixture was then added to each well. The reaction was allowed to proceed for 30 minutes at 37° C. and then the plates were screened directly with a microplate reader, TITERTEK MULTISKAN MC (Flow), at 420 nm. Readings above 0.1 which was 2× the background noted with antibody-negative sera were considered positive reactions.
Studies were designed to determine the serological reactivity with the p17 synthetic epitopes. For this purpose, 87 anti-EA antibody-positive sera (titer>160) were tested in the ELISA against optimal pre-determined concentrations (2 μg per well) of the p17 synthetic peptides. The sera were obtained from 28 patients with African Burkift's lymphoma (ABL) collected during the Ghanian Burkitt Tumor Project, and from 28 North American patients with intermediate large cell, or high grade non-Hodgkin's lymphoma (NANHL). The donors included both HIV-positive and HIV-negative individuals. In addition, sera from 31 North American nasopharyngeal carcinoma (NANPC) patients were examined in this study (Pearson, G. R., et al., Cancer, 51:260-268, 1983). To validate the EA specificity of the serological reactions, the results with these sera were compared with results with 23 VCA and EA antibody-negative sera and 30 VCA-antibody-positive, EA-antibody negative sera. In contrast to the T-cell proliferation results, all three synthetic peptides reacted with the EA antibody-positive sera to varying degrees with p17.1 again being the dominant epitope. Approximately 60% of the anti-EA-positive sera reacted with p17.1, 48% with p17.2 and 23% with p17.3.
Seventy-one percent of the sera from ABL patients and 93% of the sera from patients with NANHL reacted with p17.1 as opposed to 23% of the sera from North American patients with NPC.

[3] = system: anti-EA antibodies in human sera; test: Serological reactivity of different sera (VCA-EA-, VCA+EA+, VCA+EA-) with p50.10; type: binding
Protocol: Serological reactivity of different sera (VCA−EA−, VCA+EA+, VCA+EA−) with the p50.10 synthetic peptide was performed as described in Example 1, according to Pothen, et al., supra.

[4] = serum donors: Lymphoma (total), EA titers >160
[5] = serum donors: Nasopharyngeal carcinoma (North American), EA titers >160
[6] = serum donors: Non-Hodgkin's lymphoma (North American), EA titers >160
[7] = serum donors: Normal (VCA + EA-)

Question: How did the S.I. ([1]; PBL from 3 anti-VCA-positive anti-EA-antibody-negative individuals, highest concentrations) turn out when “ETFTETWNRFITHTE [p17.1, synthetic peptide from 17 Kd early antigen (EA-R) region of EBV]” was run?
Answer: 3.5-11

Question: And the “3H-thymidine Incorporation (cpm + S.D.)” value ([1]; 3.12 μg/ml)?
Answer: 263 ± 57 cpm

Question: And the “S.I. (stimulation index)” value ([1]; 3.12 μg/ml)?
Answer: 1.8

Question: What about the “3H-thymidine Incorporation (cpm + S.D.)” value ([1]; 12.5 μg/ml) of the same sequence?
Answer: 689 ± 88 cpm

Question: What about the “S.I. (stimulation index)” value ([1]; 12.5 μg/ml) of the same sequence?
Answer: 4.7

Question: What about the “3H-thymidine Incorporation (cpm + S.D.)” value ([1]; 50 μg/ml) of the same sequence?
Answer: 1584 ± 37 cpm

Question: What about the “S.I. (stimulation index)” value ([1]; 50 μg/ml) of the same sequence?
Answer: 10.8

Question: What about the S.I. ([1]; PBL preparation of FIG. 2A (anti-VCA-positive, anti-EA-negative), lower concentrations of antigen) of the same sequence?
Answer: 3

Question: And the S.I. ([1]; PBL preparation of FIG. 2C (anti-VCA-positive, anti-EA-negative), lower concentrations of antigen)?
Answer: 5

Question: What about the proliferation response ([1]; unfractionated PBL of donors A and B, highest concentrations tested (100 μg per ml donor A, 50 μg per ml donor B)) of the same sequence?
Answer: proliferated

Question: And the “share of anti-EA-positive sera that reacted” value ([2]; 87 anti-EA antibody-positive sera (titer>160), 2 μg peptide per well)?
Answer: Approximately 60%

Question: And the “No. Positive/No. Tested” value ([2]; serum donors: Burkitt's lymphoma (African), EA titers >160)?
Answer: 20/28

Question: And the “No. Positive/No. Tested” value [2, 4]?
Answer: 46/56

Question: And the “No. Positive/No. Tested (%)” value [2, 4]?
Answer: 82%

Question: And the “No. Positive/No. Tested” value [2, 5]?
Answer: 7/31

Question: And the “No. Positive/No. Tested (%)” value [2, 5]?
Answer: 23%

Question: What about the “No. Positive/No. Tested” value [2, 6] of the same sequence?
Answer: 26/28

Question: And the “No. Positive/No. Tested (%)” value [2, 6]?
Answer: 93%

Question: And the “No. Positive/No. Tested” value [2, 7]?
Answer: 0/30

Question: What about the “No. Positive/No. Tested (%)” value [2, 7] of the same sequence?
Answer: 0%

Question: And the “No. Positive/No. Tested” value ([2]; serum donors: Normal (VCA − EA-))?
Answer: 0/23

Question: With “KQKHPKKVKQAFNPL [p50.10, synthetic peptide from 50 Kd early antigen (EA-D) region of EBV]” as the sequence, how does the “reactivity with anti-EA antibody negative sera” value [3] read?
Answer: lack of reactivity
